pIC50: −log10 of the molar value.
target: CCR2 (Homo sapiens (Human), UniProt P41597); assay: Calcium activity assayed on the FLIPR Tetra in HEK-Gqi5 cells stably expressing CCR2; assay type: cell-based; details: FLIPR Tetra calcium assay
Description: HEK-Gqi5 cells stably expressing CCR2 were cultured in (DMEM high glucose, 10% FBS, 1% PSA, 400 μg/ml geneticin and 50 μg/ml hygromycin. Appropriate positive control chemokines (MCP-1, MIP1A or RANTES) was used as the positive control agonist for screening compound-induced calcium activity assayed on the FLIPR^Tetra. The drug plates were prepared in 384-well microplates using the EP3 and the MuItiPROBE robotic liquid handling systems. Compounds were synthesized and tested for CCR^2 activity.

Sequence of CCR2 (P41597 whole entry, species assumed): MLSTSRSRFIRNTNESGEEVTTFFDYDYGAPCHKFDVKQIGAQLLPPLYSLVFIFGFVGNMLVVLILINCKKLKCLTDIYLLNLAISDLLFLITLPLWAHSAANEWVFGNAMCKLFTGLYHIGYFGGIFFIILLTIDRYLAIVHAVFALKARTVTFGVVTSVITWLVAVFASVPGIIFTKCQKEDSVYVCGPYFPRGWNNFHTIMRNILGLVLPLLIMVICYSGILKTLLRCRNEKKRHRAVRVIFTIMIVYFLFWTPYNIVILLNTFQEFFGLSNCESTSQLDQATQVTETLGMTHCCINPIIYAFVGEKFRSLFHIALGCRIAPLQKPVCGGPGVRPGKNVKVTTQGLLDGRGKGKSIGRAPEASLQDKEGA

Row | CCR2 % ANTAGONISM | pIC50 | Structure (SMILES)
1 | 91% | 7.21 | C[S+]([O-])c1ccc(Cl)cc1NS(=O)(=O)c1ccc(Cl)cc1 (centres unmarked) [4-chloro-N-[5-chloro-2-(methylsulfinyl)phenyl]benzenesulfonamide]
2 | 98% | 6.77 | CS(=O)(=O)c1ccc(Cl)cc1NS(=O)(=O)c1ccc(Cl)cc1F [4-chloro-N-[5-chloro-2-(methylsulfonyl)phenyl]-2-fluorobenzenesulfonamide]
3 | 90% | 7.19 | CS(=O)(=O)c1ccc(Cl)cc1NS(=O)(=O)c1ccc(Cl)c(C(F)(F)F)c1 [4-chloro-N-[5-chloro-2-(methylsulfonyl)phenyl]-3-(trifluoromethyl)benzenesulfonamide]
4 | 98% | 6.81 | CS(=O)(=O)c1ccc(Cl)cc1NS(=O)(=O)c1ccc(Cl)cc1 [4-chloro-N-[5-chloro-2-(methylsulfonyl)phenyl]benzenesulfonamide]
5 | 82% | 6.87 | CSc1ccc(Cl)cc1NS(=O)(=O)c1ccc(Cl)c(C(F)(F)F)c1 [4-chloro-N-[5-chloro-2-(methylthio)phenyl]-3-(trifluoromethyl)benzenesulfonamide]
6 | 93% | 6.34 | CSc1ccc(Cl)cc1NS(=O)(=O)c1ccc(Cl)c(C)c1 [4-chloro-N-[5-chloro-2-(methylthio)phenyl]-3-methylbenzenesulfonamide]
7 | 94% | 6.39 | CSc1ccc(Cl)cc1NS(=O)(=O)c1ccc(Cl)cc1 [4-chloro-N-[5-chloro-2-(methylthio)phenyl]benzenesulfonamide]
8 | 109% | 6.79 | O=S(=O)(Nc1cc(Cl)ccc1[S+]([O-])Cc1ncc[nH]1)c1ccc(Cl)c(C(F)(F)F)c1 (centres unmarked) [4-chloro-N-{5-chloro-2-[(1H-imidazol-2-ylmethyl)sulfinyl]phenyl}-3-(trifluoromethyl)benzenesulfonamide]
9 | 113% | 6.60 | O=S(=O)(Cc1ncc[nH]1)c1ccc(Cl)cc1NS(=O)(=O)c1ccc(Cl)c(C(F)(F)F)c1 [4-chloro-N-{5-chloro-2-[(1H-imidazol-2-ylmethyl)sulfonyl]phenyl}-3-(trifluoromethyl)benzenesulfonamide]
10 | 84% | 6.72 | O=S(=O)(Nc1cc(Cl)ccc1SCc1ncc[nH]1)c1ccc(Cl)c(C(F)(F)F)c1 [4-chloro-N-{5-chloro-2-[(1H-imidazol-2-ylmethyl)thio]phenyl}-3-(trifluoromethyl)benzenesulfonamide]
11 | 111% | 6.80 | O=S(=O)(Nc1cc(Cl)ccc1[S+]([O-])Cc1c[nH]cn1)c1ccc(Cl)c(C(F)(F)F)c1 (centres unmarked) [4-chloro-N-{5-chloro-2-[(1H-imidazol-4-ylmethyl)sulfinyl]phenyl}-3-(trifluoromethyl)benzenesulfonamide]
12 | 108% | 7.29 | O=S(=O)(Cc1c[nH]cn1)c1ccc(Cl)cc1NS(=O)(=O)c1ccc(Cl)c(C(F)(F)F)c1 [4-chloro-N-{5-chloro-2-[(1H-imidazol-4-ylmethyl)sulfonyl]phenyl}-3-(trifluoromethyl)benzenesulfonamide]
13 | 83% | 7.17 | O=S(=O)(Nc1cc(Cl)ccc1SCc1c[nH]cn1)c1ccc(Cl)c(C(F)(F)F)c1 [4-chloro-N-{5-chloro-2-[(1H-imidazol-4-ylmethyl)thio]phenyl}-3-(trifluoromethyl)benzenesulfonamide]
14 | 101% | 6.84 | O=S(=O)(Nc1cc(Cl)ccc1[S+]([O-])CCO)c1ccc(Cl)c(C(F)(F)F)c1 (centres unmarked) [4-chloro-N-{5-chloro-2-[(2-hydroxyethyl)sulfinyl]phenyl}-3-(trifluoromethyl)benzenesulfonamide]
15 | 96% | 7.02 | O=S(=O)(CCO)c1ccc(Cl)cc1NS(=O)(=O)c1ccc(Cl)c(C(F)(F)F)c1 [4-chloro-N-{5-chloro-2-[(2-hydroxyethyl)sulfonyl]phenyl}-3-(trifluoromethyl)benzenesulfonamide]
16 | 88% | 6.82 | O=S(=O)(Nc1cc(Cl)ccc1SCCO)c1ccc(Cl)c(C(F)(F)F)c1 [4-chloro-N-{5-chloro-2-[(2-hydroxyethyl)thio]phenyl}-3-(trifluoromethyl)benzenesulfonamide]
17 | 101% | 6.97 | O=S(=O)(Nc1cc(Cl)ccc1[S+]([O-])C1CCC(O)C1)c1ccc(Cl)c(C(F)(F)F)c1 (centres unmarked) [4-chloro-N-{5-chloro-2-[(3-hydroxycyclopentyl)sulfinyl]phenyl}-3-(trifluoromethyl)benzenesulfonamide]
18 | 97% | 7.12 | O=S(=O)(Nc1cc(Cl)ccc1S(=O)(=O)C1CCC(O)C1)c1ccc(Cl)c(C(F)(F)F)c1 (centres unmarked) [4-chloro-N-{5-chloro-2-[(3-hydroxycyclopentyl)sulfonyl]phenyl}-3-(trifluoromethyl)benzenesulfonamide]

Row | CCR2 % ANTAGONISM | pIC50 | Structure (SMILES)
19 | 83% | 7.04 | O=S(=O)(Nc1cc(Cl)ccc1[S+]([O-])Cc1ccccn1)c1ccc(Cl)c(C(F)(F)F)c1 (centres unmarked) [4-chloro-N-{5-chloro-2-[(pyridin-2-ylmethyl)sulfinyl]phenyl}-3-(trifluoromethyl)benzenesulfonamide]
20 | 79% | 6.70 | O=S(=O)(Nc1cc(Cl)ccc1SCc1ccccn1)c1ccc(Cl)c(C(F)(F)F)c1 [4-chloro-N-{5-chloro-2-[(pyridin-2-ylmethyl)thio]phenyl}-3-(trifluoromethyl)benzenesulfonamide]
21 | 97% | 6.95 | O=S(=O)(Nc1cc(Cl)ccc1[S+]([O-])Cc1cccnc1)c1ccc(Cl)c(C(F)(F)F)c1 (centres unmarked) [4-chloro-N-{5-chloro-2-[(pyridin-3-ylmethyl)sulfinyl]phenyl}-3-(trifluoromethyl)benzenesulfonamide]
22 | 85% | 7.03 | O=S(=O)(Nc1cc(Cl)ccc1SCc1cccnc1)c1ccc(Cl)c(C(F)(F)F)c1 [4-chloro-N-{5-chloro-2-[(pyridin-3-ylmethyl)thio]phenyl}-3-(trifluoromethyl)benzenesulfonamide]
23 | 92% | 6.18 | C[S+]([O-])c1ccc(Cl)cc1NS(=O)(=O)c1cc2cc(Cl)ccc2o1 (centres unmarked) [5-chloro-N-[5-chloro-2-(methylsulfinyl)phenyl]-1-benzofuran-2-sulfonamide]
24 | 74% | 5.69 | CS(=O)(=O)c1ccc(Cl)cc1NS(=O)(=O)c1cc2cc(Cl)ccc2o1 [5-chloro-N-[5-chloro-2-(methylsulfonyl)phenyl]-1-benzofuran-2-sulfonamide]
25 | 79% | 5.57 | CC(=O)Nc1nc(C[S+]([O-])c2ccc(Cl)cc2NS(=O)(=O)c2cc3ccccc3o2)cs1 (centres unmarked) [Compound 236, N-{-4-[({2-[(1-benzofuran-2-ylsulfonyl)amino]-4-chlorophenyl}sulfinyl)methyl]-1,3-thiazol-2-yl}acetamide]
26 | 87% | – | CC(=O)Nc1nc(CS(=O)(=O)c2ccc(Cl)cc2NS(=O)(=O)c2cc3ccccc3o2)cs1 [Compound 237, N-{-4-[({2-[(1-benzofuran-2-ylsulfonyl)amino]-4-chlorophenyl}sulfonyl)methyl]-1,3-thiazol-2-yl}acetamide]
27 | 97% | – | CC(=O)NCC[S+]([O-])c1ccc(Cl)cc1NS(=O)(=O)c1ccc(Cl)c(C(F)(F)F)c1 (centres unmarked) [N-(2-{[4-chloro-2-({[4-chloro-3-(trifluoromethyl)phenyl]sulfonyl}amino)phenyl]sulfinyl}ethyl)acetamide]
28 | 98% | 5.28 | CC(=O)NCCS(=O)(=O)c1ccc(Cl)cc1NS(=O)(=O)c1ccc(Cl)c(C(F)(F)F)c1 [N-(2-{[4-chloro-2-({[4-chloro-3-(trifluoromethyl)phenyl]sulfonyl}amino)phenyl]sulfonyl}ethyl)acetamide]
29 | 100% | 6.58 | Nc1nc(C[S+]([O-])c2ccc(Cl)cc2NS(=O)(=O)c2cc3ccccc3o2)cs1 (centres unmarked) [N-(2-{[(2-amino-1,3-thiazol-4-yl)methyl]sulfinyl}-5-chlorophenyl)-1-benzofuran-2-sulfonamide]
30 | 102% | 7.08 | Nc1nc(CS(=O)(=O)c2ccc(Cl)cc2NS(=O)(=O)c2cc3ccccc3o2)cs1 [N-(2-{[(2-amino-1,3-thiazol-4-yl)methyl]sulfonyl}-5-chlorophenyl)-1-benzofuran-2-sulfonamide]
31 | 102% | 7.38 | Nc1nc(CSc2ccc(Cl)cc2NS(=O)(=O)c2cc3ccccc3o2)cs1 [N-(2-{[(2-amino-1,3-thiazol-4-yl)methyl]thio}-5-chlorophenyl)-1-benzofuran-2-sulfonamide]
32 | 54% | 5.00 | Nc1cc(CS(=O)(=O)c2ccc(Cl)cc2NS(=O)(=O)c2cc3ccccc3o2)cc[n+]1[O-] [N-(2-{[(2-amino-1-oxidopyridin-4-yl)methyl]sulfonyl}-5-chlorophenyl)-1-benzofuran-2-sulfonamide]
33 | 101% | 6.06 | Nc1cc(C[S+]([O-])c2ccc(Cl)cc2NS(=O)(=O)c2cc3ccccc3o2)ccn1 (centres unmarked) [N-(2-{[(2-aminopyridin-4-yl)methyl]sulfinyl}-5-chlorophenyl)-1-benzofuran-2-sulfonamide]
34 | 101% | 6.44 | Nc1cc(CS(=O)(=O)c2ccc(Cl)cc2NS(=O)(=O)c2cc3ccccc3o2)ccn1 [N-(2-{[(2-aminopyridin-4-yl)methyl]sulfonyl}-5-chlorophenyl)-1-benzofuran-2-sulfonamide]
35 | 100% | 7.10 | Nc1cc(CSc2ccc(Cl)cc2NS(=O)(=O)c2cc3ccccc3o2)ccn1 [N-(2-{[(2-aminopyridin-4-yl)methyl]thio}-5-chlorophenyl)-1-benzofuran-2-sulfonamide]

— patent US9663460B2, “Sulfur derivatives as chemokine receptor modulators” (ALLERGAN, INC., priority 2010, dated 2017)
